Test results taken from ChEMBL document CHEMBL3046822, “Synthesis, antiplatelet aggregation activity, and molecular modeling study of novel substituted-piperazine analogues” (2011).
The source made the active and inactive calls. The rule behind the calls is not given here.

Legend:
[1] = Antiaggregating activity in Homo sapiens (human) platelet rich plasma assessed as ADP-induced platelet aggregation at 0.5 uM incubated for 4 min prior to ADP-induction measured for 5.5 min by turbidometric analysis (reference value: 54 to 88%); type: functional
[2] = Antiaggregating activity in Homo sapiens (human) platelet rich plasma assessed as ristocetin-induced platelet aggregation at 0.1 uM incubated for 4 min prior to ristocetin-induction measured for 5.5 min by turbidometric analysis (reference value: 65 to 99%); type: functional
[3] = Antiaggregating activity in Homo sapiens (human) platelet rich plasma assessed as disaggregation of arachidonic acid-induced platelet aggregation at 0.25 uM incubated for 4 min prior to arachidonic acid-induction measured for 5.5 min by turbidometric analysis relative to control; type: functional
Platelet [4] = assay: Antiaggregating activity in Homo sapiens (human) platelet rich plasma assessed as inhibition of collagen-induced platelet aggregation at 0.5 uM incubated for 4 min prior to collagen-induction measured for 5.5 min by turbidometric analysis; type: functional, cell-free
[5] = Antiaggregating activity in Homo sapiens (human) platelet rich plasma assessed as ristocetin-induced platelet aggregation at 0.25 uM incubated for 4 min prior to ristocetin-induction measured for 5.5 min by turbidometric analysis (reference value: 65 to 99%); type: functional
[6] = Antiaggregating activity in Homo sapiens (human) platelet rich plasma assessed as arachidonic acid-induced platelet aggregation at 0.1 uM incubated for 4 min prior to arachidonic acid-induction measured for 5.5 min by turbidometric analysis (reference value: 55 to 100%); type: functional
[7] = Antiaggregating activity in Homo sapiens (human) platelet rich plasma assessed as ristocetin-induced platelet aggregation at 1 uM incubated for 4 min prior to ristocetin-induction measured for 5.5 min by turbidometric analysis (reference value: 65 to 99%); type: functional
Platelet [8] = assay: Antiaggregating activity in Homo sapiens (human) platelet rich plasma assessed as inhibition of arachidonic acid-induced platelet aggregation at 1 uM incubated for 4 min prior to arachidonic acid-induction measured for 5.5 min by turbidometric analysis; type: functional, cell-free
[9] = Antiaggregating activity in Homo sapiens (human) platelet rich plasma assessed as collagen-induced platelet aggregation at 0.1 uM incubated for 4 min prior to collagen-induction measured for 5.5 min by turbidometric analysis (reference value: 50 to 98%); type: functional
[10] = Antiaggregating activity in Homo sapiens (human) platelet rich plasma assessed as ristocetin-induced platelet aggregation at 0.5 uM incubated for 4 min prior to ristocetin-induction measured for 5.5 min by turbidometric analysis (reference value: 65 to 99%); type: functional
Platelet [11] = assay: Antiaggregating activity in Homo sapiens (human) platelet rich plasma assessed as inhibition of collagen-induced platelet aggregation at 1 uM incubated for 4 min prior to collagen-induction measured for 5.5 min by turbidometric analysis; type: functional, cell-free
Platelet [12] = assay: Antiaggregating activity in Homo sapiens (human) platelet rich plasma assessed as inhibition of ADP-induced platelet aggregation at 1 uM incubated for 4 min prior to ADP-induction measured for 5.5 min by turbidometric analysis; type: functional, cell-free
[13] = Antiaggregating activity in Homo sapiens (human) platelet rich plasma assessed as collagen-induced platelet aggregation at 0.25 uM incubated for 4 min prior to collagen-induction measured for 5.5 min by turbidometric analysis (reference value: 50 to 98%); type: functional
Platelet [14] = assay: Antiaggregating activity in Homo sapiens (human) platelet rich plasma assessed as inhibition of adrenaline-induced platelet aggregation at 0.25 uM incubated for 4 min prior to adrenaline-induction measured for 5.5 min by turbidometric analysis; type: functional, cell-free
[15] = Antiaggregating activity in Homo sapiens (human) platelet rich plasma assessed as disaggregation of arachidonic acid-induced platelet aggregation at 0.5 uM incubated for 4 min prior to arachidonic acid-induction measured for 5.5 min by turbidometric analysis relative to control; type: functional
[16] = Antiaggregating activity in Homo sapiens (human) platelet rich plasma assessed as ADP-induced platelet aggregation at 0.1 uM incubated for 4 min prior to ADP-induction measured for 5.5 min by turbidometric analysis (reference value: 54 to 88%); type: functional
[17] = Antiaggregating activity in Homo sapiens (human) platelet rich plasma assessed as ADP-induced platelet aggregation at 0.25 uM incubated for 4 min prior to ADP-induction measured for 5.5 min by turbidometric analysis (reference value: 54 to 88%); type: functional
Platelet [18] = assay: Antiaggregating activity in Homo sapiens (human) platelet rich plasma assessed as inhibition of adrenaline-induced platelet aggregation at 1 uM incubated for 4 min prior to adrenaline-induction measured for 5.5 min by turbidometric analysis; type: functional, cell-free
Platelet [19] = assay: Antiaggregating activity in Homo sapiens (human) platelet rich plasma assessed as inhibition of adrenaline-induced platelet aggregation at 0.5 uM incubated for 4 min prior to adrenaline-induction measured for 5.5 min by turbidometric analysis; type: functional, cell-free
Platelet [20] = assay: Antiaggregating activity in Homo sapiens (human) platelet rich plasma assessed as inhibition of adrenaline-induced platelet aggregation at 0.1 uM incubated for 4 min prior to adrenaline-induction measured for 5.5 min by turbidometric analysis; type: functional, cell-free
[21] = Antiaggregating activity in Homo sapiens (human) platelet rich plasma assessed as disaggregation of ristocetin-induced platelet aggregation at 0.25 uM incubated for 4 min prior to ristocetin-induction measured for 5.5 min by turbidometric analysis relative to control; type: functional
Platelet [22] = assay: Antiaggregating activity in Homo sapiens (human) platelet rich plasma assessed as inhibition of ADP-induced platelet aggregation at 0.5 uM incubated for 4 min prior to ADP-induction measured for 5.5 min by turbidometric analysis; type: functional, cell-free
Platelet [23] = assay: Antiaggregating activity in Homo sapiens (human) platelet rich plasma assessed as inhibition of arachidonic acid-induced platelet aggregation at 0.25 uM incubated for 4 min prior to arachidonic acid-induction measured for 5.5 min by turbidometric analysis; type: functional, cell-free
Platelet [24] = assay: Antiaggregating activity in Homo sapiens (human) platelet rich plasma assessed as inhibition of collagen-induced platelet aggregation at 0.25 uM incubated for 4 min prior to collagen-induction measured for 5.5 min by turbidometric analysis; type: functional
[25] = Antiaggregating activity in Homo sapiens (human) platelet rich plasma assessed as disaggregation of ristocetin-induced platelet aggregation at 0.5 uM incubated for 4 min prior to ristocetin-induction measured for 5.5 min by turbidometric analysis relative to control; type: functional
Platelet [26] = assay: Antiaggregating activity in Homo sapiens (human) platelet rich plasma assessed as inhibition of arachidonic acid-induced platelet aggregation at 0.1 uM incubated for 4 min prior to arachidonic acid-induction measured for 5.5 min by turbidometric analysis; type: functional, cell-free
[27] = Antiaggregating activity in Homo sapiens (human) platelet rich plasma assessed as disaggregation of ADP-induced platelet aggregation at 0.25 uM incubated for 4 min prior to ADP-induction measured for 5.5 min by turbidometric analysis relative to control; type: functional
Platelet [28] = assay: Antiaggregating activity in Homo sapiens (human) platelet rich plasma assessed as inhibition of arachidonic acid-induced platelet aggregation at 0.5 uM incubated for 4 min prior to arachidonic acid-induction measured for 5.5 min by turbidometric analysis; type: functional
[29] = Antiaggregating activity in Homo sapiens (human) platelet rich plasma assessed as arachidonic acid-induced platelet aggregation at 1 uM incubated for 4 min prior to arachidonic acid-induction measured for 5.5 min by turbidometric analysis (reference value: 55 to 100%); type: functional
[30] = Antiaggregating activity in Homo sapiens (human) platelet rich plasma assessed as ristocetin-induced platelet aggregation at 10 uM incubated for 4 min prior to ristocetin-induction measured for 5.5 min by turbidometric analysis (reference value: 65 to 99%); type: functional
[31] = Antiaggregating activity in Homo sapiens (human) platelet rich plasma assessed as ADP-induced platelet aggregation at 1 uM incubated for 4 min prior to ADP-induction measured for 5.5 min by turbidometric analysis (reference value: 54 to 88%); type: functional
Platelet [32] = assay: Antiaggregating activity in Homo sapiens (human) platelet rich plasma assessed as inhibition of ristocetin-induced platelet aggregation at 20 uM incubated for 4 min prior to ristocetin-induction measured for 5.5 min by turbidometric analysis; type: functional, cell-free
Platelet [33] = assay: Antiaggregating activity in Homo sapiens (human) platelet rich plasma assessed as inhibition of collagen-induced platelet aggregation at 5 uM incubated for 4 min prior to collagen-induction measured for 5.5 min by turbidometric analysis; type: functional, cell-free
[34] = Antiaggregating activity in Homo sapiens (human) platelet rich plasma assessed as ristocetin-induced platelet aggregation at 5 uM incubated for 4 min prior to ristocetin-induction measured for 5.5 min by turbidometric analysis (reference value: 65 to 99%); type: functional
Platelet [35] = assay: Antiaggregating activity in Homo sapiens (human) platelet rich plasma assessed as inhibition of adrenaline-induced platelet aggregation at 20 uM incubated for 4 min prior to adrenaline-induction measured for 5.5 min by turbidometric analysis; type: functional, cell-free
[36] = Antiaggregating activity in Homo sapiens (human) platelet rich plasma assessed as ADP-induced platelet aggregation at 5 uM incubated for 4 min prior to ADP-induction measured for 5.5 min by turbidometric analysis (reference value: 54 to 88%); type: functional
Platelet [37] = assay: Antiaggregating activity in Homo sapiens (human) platelet rich plasma assessed as inhibition of arachidonic acid-induced platelet aggregation at 20 uM incubated for 4 min prior to arachidonic acid-induction measured for 5.5 min by turbidometric analysis; type: functional, cell-free
Platelet [38] = assay: Antiaggregating activity in Homo sapiens (human) platelet rich plasma assessed as inhibition of arachidonic acid-induced platelet aggregation at 5 uM incubated for 4 min prior to arachidonic acid-induction measured for 5.5 min by turbidometric analysis; type: functional, cell-free
Platelet [39] = assay: Antiaggregating activity in Homo sapiens (human) platelet rich plasma assessed as inhibition of ADP-induced platelet aggregation at 10 uM incubated for 4 min prior to ADP-induction measured for 5.5 min by turbidometric analysis; type: functional, cell-free
Platelet [40] = assay: Antiaggregating activity in Homo sapiens (human) platelet rich plasma assessed as ADP-induced platelet aggregation at 20 uM incubated for 4 min prior to ADP-induction measured for 5.5 min by turbidometric analysis (reference value: 54 to 88%); type: functional
Platelet [41] = assay: Antiaggregating activity in Homo sapiens (human) platelet rich plasma assessed as inhibition of arachidonic acid-induced platelet aggregation at 10 uM incubated for 4 min prior to arachidonic acid-induction measured for 5.5 min by turbidometric analysis; type: functional, cell-free
Platelet [42] = assay: Antiaggregating activity in Homo sapiens (human) platelet rich plasma assessed as inhibition of collagen-induced platelet aggregation at 20 uM incubated for 4 min prior to collagen-induction measured for 5.5 min by turbidometric analysis; type: functional, cell-free
Platelet [43] = assay: Antiaggregating activity in Homo sapiens (human) platelet rich plasma assessed as inhibition of adrenaline-induced platelet aggregation at 10 uM incubated for 4 min prior to adrenaline-induction measured for 5.5 min by turbidometric analysis; type: functional, cell-free
Platelet [44] = assay: Antiaggregating activity in Homo sapiens (human) platelet rich plasma assessed as inhibition of collagen-induced platelet aggregation at 10 uM incubated for 4 min prior to collagen-induction measured for 5.5 min by turbidometric analysis; type: functional, cell-free
Platelet [45] = assay: Antiaggregating activity in Homo sapiens (human) platelet rich plasma assessed as inhibition of adrenaline-induced platelet aggregation at 5 uM incubated for 4 min prior to adrenaline-induction measured for 5.5 min by turbidometric analysis; type: functional, cell-free
[46] = Antiaggregating activity in Homo sapiens (human) platelet rich plasma assessed as collagen-induced platelet aggregation at 1 uM incubated for 4 min prior to collagen-induction measured for 5.5 min by turbidometric analysis (reference value: 50 to 98%); type: functional
Platelet [47] = assay: Antiaggregating activity in Homo sapiens (human) platelet rich plasma assessed as inhibition of arachidonic acid-induced platelet aggregation at 0.125 uM incubated for 4 min prior to arachidonic acid-induction measured for 5.5 min by turbidometric analysis; type: functional, cell-free
[48] = Antiaggregating activity in Homo sapiens (human) platelet rich plasma assessed as ristocetin-induced platelet aggregation at 0.125 uM incubated for 4 min prior to ristocetin-induction measured for 5.5 min by turbidometric analysis (reference value: 65 to 99%); type: functional
Platelet [49] = assay: Antiaggregating activity in Homo sapiens (human) platelet rich plasma assessed as inhibition of ADP-induced platelet aggregation at 0.25 uM incubated for 4 min prior to ADP-induction measured for 5.5 min by turbidometric analysis; type: functional, cell-free
Platelet [50] = assay: Antiaggregating activity in Homo sapiens (human) platelet rich plasma assessed as inhibition of adrenaline-induced platelet aggregation at 0.125 uM incubated for 4 min prior to adrenaline-induction measured for 5.5 min by turbidometric analysis; type: functional, cell-free
[51] = Antiaggregating activity in Homo sapiens (human) platelet rich plasma assessed as collagen-induced platelet aggregation at 0.125 uM incubated for 4 min prior to collagen-induction measured for 5.5 min by turbidometric analysis (reference value: 50 to 98%); type: functional
[52] = Antiaggregating activity in Homo sapiens (human) platelet rich plasma assessed as disaggregation of ADP-induced platelet aggregation at 0.125 uM incubated for 4 min prior to ADP-induction measured for 5.5 min by turbidometric analysis relative to control; type: functional

Row | Structure (SMILES) | Activity [2] [%] | inhibition (Platelet [4]) | Activity [7] [%] | inhibition (Platelet [8]) | Activity [9] [%] | Activity [10] [%] | inhibition (Platelet [11]) | inhibition (Platelet [12]) | inhibition (Platelet [14]) | Activity [16] [%] | inhibition (Platelet [18]) | inhibition (Platelet [19]) | inhibition (Platelet [20]) | Activity [21] [%] | inhibition (Platelet [22]) | inhibition (Platelet [23]) | inhibition (Platelet [24]) | inhibition (Platelet [28]) | also measured
1 | Br.O=C(C1CCCN(Cc2ccc(Br)cc2)C1)N1CCN(c2ccccn2)CC1 (stereo not given) | 91 | Active | 24 | Active | 67 | 63 | Active | Active | Active | 76 | Active | Active | Active |  |  |  |  |  | Activity [1]: 18%; Activity [3]: 22%; Activity [5]: 81%; Activity [6]: 72%; Activity [13]: 64%; Activity [15]: 28%; Activity [17]: 65%
2 | Br.O=C(C1CCCN(Cc2ccc([N+](=O)[O-])cc2)C1)N1CCN(c2ccccc2Cl)CC1 (stereo not given) | 66 | Active | 23 | Active | 58 |  | Active | Active | Active | 57 | Active | Active | Active | 58 | Active | Active | Active | Active | Activity [25]: 50%; inhibition (Platelet [26]): Active; Activity [27]: 28%
3 | O=C(c1ccc[n+](Cc2ccc(Br)cc2)c1)N1CCN(c2ncccn2)CC1.[Br-] |  |  | 60 |  |  |  |  |  |  |  | Active |  |  |  |  |  |  |  | Activity [29]: 52%; Activity [30]: 27%; Activity [31]: 60%; inhibition (Platelet [32]): Active; inhibition (Platelet [33]): Active; Activity [34]: 43%; inhibition (Platelet [35]): Active; Activity [36]: 64%; inhibition (Platelet [37]): Active; inhibition (Platelet [38]): Active; inhibition (Platelet [39]): Active; inhibition (Platelet [40]): Active; inhibition (Platelet [41]): Active; inhibition (Platelet [42]): Active; inhibition (Platelet [43]): Active; inhibition (Platelet [44]): Active; inhibition (Platelet [45]): Active; Activity [46]: 64%
4 | Cl.O=C(C1CCCN(Cc2ccc(F)cc2)C1)N1CCN(c2ccccc2Cl)CC1 (stereo not given) |  | Active | 40 | Active |  | 67 | Active | Active | Active |  | Active | Active |  | 68 | Active | Active | Active | Active | inhibition (Platelet [47]): Active; Activity [48]: 100%; inhibition (Platelet [49]): Active; inhibition (Platelet [50]): Active; Activity [51]: 72%; Activity [52]: 80%
